Measured values reported in patent US20230094952A1, “Method for Culturing Hematopoietic Stem Cells” (Sumitomo Pharma Co., Ltd., priority 2019, published 2023).

How the values were obtained:
[1] = system: human hematopoietic stem cells (CD34-positive cells); experiment: Functional test with human cells: colony assay (CFU-GEMM) after culture; type: cell-based
Method: Each of artemether and the compounds of Example 1-23, Example 1-16, and Example 1-7 was prepared with the cell culture medium at nine final concentrations (0.001 μM, 0.003 μM, 0.01 μM, 0.03 μM, 0.1 μM, 0.3 μM, 1 μM, 3 μM, 10 μM), and added to the above human cells seeded after classification to a final volume of 200 μL/well to act thereon. UM171 (35 nM) was added to some of them to examine the presence or absence of synergistic effect. Thereafter, the cells were cultured in a CO2 incubator under conditions of 37° C. and 5% CO2 for 1 week, collected, and then seeded in a 96-well plate to place one CD34-positive cell in each well by using a FACS Aria III cell sorter, and cultured with a MethoCult H4435 ([…] Technologies Inc.) for 2 weeks. After culture, each well was photographed with an optical microscope (manufactured by KEYENCE CORPORATION), and the colony count was determined by visual observation and the form of each colony was determined by visual observation. Colony Formation Unit-Granulocytes, Erythroids, Macrophages, Megakaryocytes (CFU-GEMM), which are derived from myeloid progenitor cells, the erythroid burst colony-forming cells Burst Forming Unit-Erythroids (BFU-E), the granulocyte/macrophage colony-forming cells Colony Formation Unit-Granulocytes, Macrophages (CFU-GM) were determined on the basis of the forms of colonies, and the numbers were counted.

[2] = system: mouse long-term hematopoietic stem cells; experiment: Reproducibility and concentration dependence test: 1-week culture of sorted Hoxb5-tri-mCherry mouse long-term hematopoietic stem cells, flow cytometry; type: cell-based; details: day 7 of culture, n=2
In short: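 Hoxb5-tri-mCherry+ LT-HSCs (Lin−c-Kit+Sca-1+Flk2−CD34−/lo CD150+) were sorted from mouse bone marrow at 10 cells/well into StemSpan SFEM with SCF and TPO. Cells were cultured with compound for 1 week at 37°C, 5% CO2. Flow cytometry then measured KLS and mCherry+ fractions and cell counts.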

[3] = compound 0.001 μM, 1 week culture then 2 weeks MethoCult H4435, no UM171
[4] = compound 0.003 μM, 1 week culture then 2 weeks MethoCult H4435, no UM171
[5] = compound 0.01 μM, 1 week culture then 2 weeks MethoCult H4435, no UM171
[6] = compound 0.03 μM, 1 week culture then 2 weeks MethoCult H4435, no UM171
[7] = compound 0.1 μM, 1 week culture then 2 weeks MethoCult H4435, no UM171
[8] = compound 0.3 μM, 1 week culture then 2 weeks MethoCult H4435, no UM171
[9] = compound 1 μM, 1 week culture then 2 weeks MethoCult H4435, no UM171
[10] = compound 3 μM, 1 week culture then 2 weeks MethoCult H4435, no UM171
[11] = compound 10 μM, 1 week culture then 2 weeks MethoCult H4435, no UM171

CO[C@H]1O[C@@H]2O[C@@]3(C)CC[C@H]4[C@H](C)CC[C@@H]([C@H]1C)[C@@]24OO3 [Example 1-30, artemether, reference compound]
Colony count (colony) after culture (CFU-GEMM) ([1]; UM171 (35 nM) and artemether 0.001 μM): 40.1 colony | Colony count (colony) after culture (CFU-GEMM) ([1]; UM171 (35 nM) and artemether 0.003 μM): 204.0 colony | Colony count (colony) after culture (CFU-GEMM) ([1]; UM171 (35 nM) and artemether 0.01 μM): 53.8 colony | Colony count (colony) after culture (CFU-GEMM) ([1]; UM171 (35 nM) and artemether 0.03 μM): 46.8 colony | Colony count (colony) after culture (CFU-GEMM) ([1]; UM171 (35 nM) and artemether 0.1 μM): 94.0 colony | Colony count (colony) after culture (CFU-GEMM) ([1]; UM171 (35 nM) and artemether 0.3 μM): 40.0 colony | Colony count (colony) after culture (CFU-GEMM) ([1]; UM171 (35 nM) and artemether 1 μM): 0.0 colony | Colony count (colony) after culture (CFU-GEMM) [1, 3]: 40.3 colony | Colony count (colony) after culture (CFU-GEMM) [1, 4]: 61.4 colony | Colony count (colony) after culture (CFU-GEMM) [1, 5]: 33.2 colony | Colony count (colony) after culture (CFU-GEMM) [1, 6]: 34.8 colony | Colony count (colony) after culture (CFU-GEMM) [1, 7]: 37.0 colony | Colony count (colony) after culture (CFU-GEMM) [1, 8]: 36.7 colony | Colony count (colony) after culture (CFU-GEMM) [1, 9]: 63.9 colony | Colony count (colony) after culture (CFU-GEMM) [1, 10]: 31.7 colony | Colony count (colony) after culture (CFU-GEMM) [1, 11]: 0.0 colony | KLS-positive rate ([2]; Table 3, compound 0.1 μM): 50.25% | Viable cell count ([2]; Table 3, compound 0.1 μM): 1109 cell | mCherry-positive rate ([2]; Table 3, compound 0.1 μM): 67.2% | KLS-positive rate ([2]; Table 3, compound 0.3 μM): 22.05% | Viable cell count ([2]; Table 3, compound 0.3 μM): 2632 cell | mCherry-positive rate ([2]; Table 3, compound 0.3 μM): 36.85% | KLS-positive rate ([2]; Table 3, compound 1 μM): 21.4% | Viable cell count ([2]; Table 3, compound 1 μM): 1170.5 cell | mCherry-positive rate ([2]; Table 3, compound 1 μM): 57.85% | KLS-positive rate ([2]; Table 3, compound 3 μM): 50.3% | Viable cell count ([2]; Table 3, compound 3 μM): 115 cell | mCherry-positive rate ([2]; Table 3, compound 3 μM): 98.05% | KLS-positive rate ([2]; Table 3, compound 10 μM): 65.9% | Viable cell count ([2]; Table 3, compound 10 μM): 108.5 cell | mCherry-positive rate ([2]; Table 3, compound 10 μM): 94.45% | KLS-positive rate ([2]; Table 4, compound 0.1 μM): 35.3% | Viable cell count ([2]; Table 4, compound 0.1 μM): 238.0 cell | mCherry-positive rate ([2]; Table 4, compound 0.1 μM): 71.2% | KLS-positive rate ([2]; Table 4, compound 0.3 μM): 38.4% | Viable cell count ([2]; Table 4, compound 0.3 μM): 184.0 cell | mCherry-positive rate ([2]; Table 4, compound 0.3 μM): 100.0% | KLS-positive rate ([2]; Table 4, compound 1 μM): 40.1% | Viable cell count ([2]; Table 4, compound 1 μM): 135.5 cell | mCherry-positive rate ([2]; Table 4, compound 1 μM): 99.0% | KLS-positive rate ([2]; Table 4, compound 3 μM): 57.4% | Viable cell count ([2]; Table 4, compound 3 μM): 44.5 cell | mCherry-positive rate ([2]; Table 4, compound 3 μM): 100.0% | KLS-positive rate ([2]; Table 4, compound 10 μM): 71.4% | Viable cell count ([2]; Table 4, compound 10 μM): 65.0 cell | mCherry-positive rate ([2]; Table 4, compound 10 μM): 98.2%

COCCO[C@H]1O[C@@H]2O[C@@]3(C)CC[C@H]4[C@H](C)CC[C@@H]([C@H]1C)[C@@]24OO3 [Example 1-23, (3R,5aS,6R,8aS,9R,10S,12R,12aR)-10-(2-methoxyethoxy)-3,6,9-trimethyldecahydro-12H-3,12-epoxypyrano[4,3-j][1,2]benzodioxepine]
Colony count (colony) after culture (CFU-GEMM) [1, 3]: 171.3 colony | Colony count (colony) after culture (CFU-GEMM) [1, 4]: 39.9 colony | Colony count (colony) after culture (CFU-GEMM) [1, 5]: 76.8 colony | Colony count (colony) after culture (CFU-GEMM) [1, 6]: 22.5 colony | Colony count (colony) after culture (CFU-GEMM) [1, 7]: 13.4 colony | Colony count (colony) after culture (CFU-GEMM) [1, 8]: 3.9 colony | Colony count (colony) after culture (CFU-GEMM) [1, 9]: 12.0 colony | Colony count (colony) after culture (CFU-GEMM) [1, 10]: 4.5 colony | Colony count (colony) after culture (CFU-GEMM) [1, 11]: 0.0 colony | KLS-positive rate ([2]; Table 4, compound 0.1 μM): 12.4% | Viable cell count ([2]; Table 4, compound 0.1 μM): 712.5 cell | mCherry-positive rate ([2]; Table 4, compound 0.1 μM): 17.9% | KLS-positive rate ([2]; Table 4, compound 0.3 μM): 15.4% | Viable cell count ([2]; Table 4, compound 0.3 μM): 509.0 cell | mCherry-positive rate ([2]; Table 4, compound 0.3 μM): 46.5% | KLS-positive rate ([2]; Table 4, compound 1 μM): 5.3% | Viable cell count ([2]; Table 4, compound 1 μM): 729.0 cell | mCherry-positive rate ([2]; Table 4, compound 1 μM): 72.7% | KLS-positive rate ([2]; Table 4, compound 3 μM): 23.2% | Viable cell count ([2]; Table 4, compound 3 μM): 252.0 cell | mCherry-positive rate ([2]; Table 4, compound 3 μM): 97.3% | KLS-positive rate ([2]; Table 4, compound 10 μM): 42.3% | Viable cell count ([2]; Table 4, compound 10 μM): 63.5 cell | mCherry-positive rate ([2]; Table 4, compound 10 μM): 100.0%

C[C@H]1[C@H](C(N)=O)O[C@@H]2O[C@@]3(C)CC[C@H]4[C@H](C)CC[C@@H]1[C@@]24OO3 [Example 1-16, (3R,5aS,6R,8aS,9R,10R,12R,12aR)-3,6,9-Trimethyldecahydro-12H-3,12-epoxypyrano[4,3-j][1,2]benzodioxepine-10-carboxamide]
Colony count (colony) after culture (CFU-GEMM) [1, 3]: 130.6 colony | Colony count (colony) after culture (CFU-GEMM) [1, 4]: 112.2 colony | Colony count (colony) after culture (CFU-GEMM) [1, 5]: 65.1 colony | Colony count (colony) after culture (CFU-GEMM) [1, 6]: 68.8 colony | Colony count (colony) after culture (CFU-GEMM) [1, 7]: 40.6 colony | Colony count (colony) after culture (CFU-GEMM) [1, 8]: 22.9 colony | Colony count (colony) after culture (CFU-GEMM) [1, 9]: 15.7 colony | Colony count (colony) after culture (CFU-GEMM) [1, 10]: 10.0 colony | Colony count (colony) after culture (CFU-GEMM) [1, 11]: 8.8 colony | KLS-positive rate ([2]; Table 4, compound 0.1 μM): 13.3% | Viable cell count ([2]; Table 4, compound 0.1 μM): 504.5 cell | mCherry-positive rate ([2]; Table 4, compound 0.1 μM): 6.8% | KLS-positive rate ([2]; Table 4, compound 0.3 μM): 11.6% | Viable cell count ([2]; Table 4, compound 0.3 μM): 388.5 cell | mCherry-positive rate ([2]; Table 4, compound 0.3 μM): 29.2% | KLS-positive rate ([2]; Table 4, compound 1 μM): 33.4% | Viable cell count ([2]; Table 4, compound 1 μM): 310.0 cell | mCherry-positive rate ([2]; Table 4, compound 1 μM): 68.2% | KLS-positive rate ([2]; Table 4, compound 3 μM): 9.2% | Viable cell count ([2]; Table 4, compound 3 μM): 182.5 cell | mCherry-positive rate ([2]; Table 4, compound 3 μM): 92.4% | KLS-positive rate ([2]; Table 4, compound 10 μM): 52.6% | Viable cell count ([2]; Table 4, compound 10 μM): 29.0 cell | mCherry-positive rate ([2]; Table 4, compound 10 μM): 99.0%

C[C@H]1[C@H](c2ccco2)O[C@@H]2O[C@@]3(C)CC[C@H]4[C@H](C)CC[C@@H]1[C@@]24OO3 [Example 1-7, (3R,5aS,6R,8aS,9R,10R,12R,12aR)-10-(Furan-2-yl)-3,6,9-trimethyldecahydro-12H-3,12-epoxypyrano[4,3-j][1,2]benzodioxepine]
Colony count (colony) after culture (CFU-GEMM) [1, 3]: 43.8 colony | Colony count (colony) after culture (CFU-GEMM) [1, 4]: 33.8 colony | Colony count (colony) after culture (CFU-GEMM) [1, 5]: 74.3 colony | Colony count (colony) after culture (CFU-GEMM) [1, 6]: 83.0 colony | Colony count (colony) after culture (CFU-GEMM) [1, 7]: 64.1 colony | Colony count (colony) after culture (CFU-GEMM) [1, 8]: 19.5 colony | Colony count (colony) after culture (CFU-GEMM) [1, 9]: 0.0 colony | Colony count (colony) after culture (CFU-GEMM) [1, 10]: 0.0 colony | Colony count (colony) after culture (CFU-GEMM) [1, 11]: 0.0 colony | KLS-positive rate ([2]; Table 4, compound 0.1 μM): 26.9% | Viable cell count ([2]; Table 4, compound 0.1 μM): 225.0 cell | mCherry-positive rate ([2]; Table 4, compound 0.1 μM): 42.9% | KLS-positive rate ([2]; Table 4, compound 0.3 μM): 19.6% | Viable cell count ([2]; Table 4, compound 0.3 μM): 269.0 cell | mCherry-positive rate ([2]; Table 4, compound 0.3 μM): 62.2% | KLS-positive rate ([2]; Table 4, compound 1 μM): 36.1% | Viable cell count ([2]; Table 4, compound 1 μM): 73.0 cell | mCherry-positive rate ([2]; Table 4, compound 1 μM): 96.7% | KLS-positive rate ([2]; Table 4, compound 3 μM): 0.0% | Viable cell count ([2]; Table 4, compound 3 μM): 0.0 cell | mCherry-positive rate ([2]; Table 4, compound 3 μM): 0.0% | KLS-positive rate ([2]; Table 4, compound 10 μM): 0.0% | Viable cell count ([2]; Table 4, compound 10 μM): 0.0 cell | mCherry-positive rate ([2]; Table 4, compound 10 μM): 0.0%
